Results reported in the CheMixHub ionic liquid set.

Experiment: xn = mol fraction of the nth substance listed
Conditions: 100 kPa; for electrical conductivity: frequency 0.001 MHz

CCCC[N+](CCCC)(CCCC)Cc1ccccc1.[Cl-] + NC(=O)CC[C@H](N)C(=O)O + O
Conditions | electrical conductivity, 293.15 K [S/m] | electrical conductivity, 298.15 K [S/m] | electrical conductivity, 303.15 K [S/m] | electrical conductivity, 308.15 K [S/m] | electrical conductivity, 313.15 K [S/m] | viscosity, 293.15 K [mPa·s] | viscosity, 298.15 K [mPa·s] | viscosity, 303.15 K [mPa·s] | viscosity, 308.15 K [mPa·s] | viscosity, 313.15 K [mPa·s]
x2 = 0.0001802, x1 = 1.802e-05 | 0.0331 | 0.0352 | 0.0382 | 0.041 | 0.0452 | 0.961 | 0.921 | 0.884 | – | –
x2 = 0.0001803, x1 = 5.405e-05 | 0.0419 | 0.0441 | 0.0463 | 0.0496 | 0.0536 | 0.969 | 0.929 | 0.888 | – | –
x2 = 0.0001804, x1 = 9.008e-05 | 0.0513 | 0.0542 | 0.0582 | 0.0612 | 0.0654 | 0.98 | 0.939 | 0.9 | – | –
x2 = 0.0004504, x1 = 1.801e-05 | 0.0408 | 0.0453 | 0.0486 | 0.0523 | 0.0553 | 0.969 | 0.93 | 0.893 | 0.858 | 0.803
x2 = 0.0004507, x1 = 5.403e-05 | 0.0492 | 0.0543 | 0.057 | 0.0597 | 0.0642 | 0.978 | 0.938 | 0.896 | 0.863 | 0.808
x2 = 0.000451, x1 = 9.005e-05 | 0.0592 | 0.0641 | 0.067 | 0.069 | 0.0728 | 0.99 | 0.949 | 0.909 | 0.869 | 0.817
x2 = 0.0007205, x1 = 1.801e-05 | 0.0479 | 0.0557 | 0.0582 | 0.0614 | 0.0662 | 0.977 | 0.939 | 0.902 | 0.867 | 0.812
x2 = 0.0007209, x1 = 5.402e-05 | 0.0619 | 0.0683 | 0.0702 | 0.0724 | 0.0764 | 0.987 | 0.947 | 0.906 | 0.872 | 0.818
x2 = 0.0007213, x1 = 9.003e-05 | 0.0692 | 0.0768 | 0.0774 | 0.0796 | 0.0867 | 1 | 0.96 | 0.919 | 0.88 | 0.827
x2 = 0.0009904, x1 = 1.8e-05 | 0.0551 | 0.064 | 0.0692 | 0.071 | 0.0769 | 0.985 | 0.948 | 0.912 | 0.877 | 0.823
x2 = 0.000991, x1 = 5.4e-05 | 0.0713 | 0.0784 | 0.0819 | 0.0821 | 0.0806 | 0.996 | 0.957 | 0.917 | 0.882 | 0.827
x2 = 0.0009916, x1 = 9e-05 | 0.0768 | 0.0871 | 0.0876 | 0.0906 | 0.1 | 1.01 | 0.97 | 0.929 | 0.891 | 0.838
x2 = 0.00126, x1 = 1.8e-05 | 0.0646 | 0.0756 | 0.079 | 0.0819 | 0.0865 | 0.994 | 0.956 | 0.921 | 0.887 | 0.833
x2 = 0.001261, x1 = 5.399e-05 | 0.0809 | 0.0902 | 0.0923 | 0.0943 | 0.103 | 1.005 | 0.967 | 0.926 | 0.894 | 0.838
x2 = 0.001262, x1 = 8.998e-05 | 0.0911 | 0.098 | 0.0989 | 0.101 | 0.113 | 1.021 | 0.98 | 0.939 | 0.901 | 0.849
x2 = 0.00153, x1 = 1.799e-05 | 0.0733 | 0.0847 | 0.0896 | 0.0903 | 0.0994 | 1.002 | 0.965 | 0.929 | 0.897 | 0.843
x2 = 0.001531, x1 = 5.397e-05 | 0.0868 | 0.0975 | 0.103 | 0.105 | 0.116 | 1.014 | 0.977 | 0.936 | 0.904 | 0.849
x2 = 0.001532, x1 = 8.995e-05 | 0.099 | 0.106 | 0.108 | 0.109 | 0.119 | 1.029 | 0.99 | 0.95 | 0.912 | 0.86
